PubChem BioAssay AID588646 (The Scripps Research Institute Molecular Screening Center, 2011)
Active and inactive are the calls of the source.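 Rule for the calls: active = phosphorylated p38 level fell or rose by at least 30% against DMSO-treated cells; inactive = change under 30% either way.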

Target: Mitogen-activated protein kinase 14 (Homo sapiens) (UniProt Q16539)
Assay: phospho-p38 protein level change, either direction, late-stage follow-up, counter-screen for KLF5 inhibitor project, cell-based, HCT116 colorectal carcinoma, chemiluminescent western blot (AID 588646)
Settings: 24 h, at 10 µM; for inhibition: measured here: phospho-p38 inhibition percent

Mitogen-activated protein kinase 14 (Homo sapiens), sequence (Q16539 whole entry, looked up): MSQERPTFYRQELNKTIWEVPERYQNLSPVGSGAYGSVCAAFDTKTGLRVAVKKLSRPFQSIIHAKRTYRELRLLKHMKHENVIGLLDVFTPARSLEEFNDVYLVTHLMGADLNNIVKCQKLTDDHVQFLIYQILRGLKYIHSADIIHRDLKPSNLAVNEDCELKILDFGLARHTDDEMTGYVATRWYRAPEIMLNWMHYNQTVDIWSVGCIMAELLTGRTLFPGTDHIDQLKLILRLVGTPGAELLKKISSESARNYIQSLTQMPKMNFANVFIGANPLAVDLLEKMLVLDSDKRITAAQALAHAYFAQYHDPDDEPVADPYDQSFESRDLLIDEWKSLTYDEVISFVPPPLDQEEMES

SMILES	fold change	inhibition [%]
CN(C(=O)CNC(=O)/C=C/c1cccc(Cl)c1)C1CCS(=O)(=O)CC1	7.64	
CN(C(=O)COC(=O)/C=C/c1cccc([N+](=O)[O-])c1)C1CCS(=O)(=O)C1 (stereo not given)	2.03	-103
CN(C(=O)CNC(=O)/C=C/c1cccc(Cl)c1)C1CCS(=O)(=O)C1 (stereo not given)	-1.14 (inactive)	11.9
